Results from PubChem BioAssay AID1963958 (Molecular Pharmacology Branch, DTP, NCI, 2024).

System: MDA-MB-231 multicell spheroids, viability
Assay: Anticancer human tumor MDA-MB-231 cell line growth inhibition [PI3K];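 note: spheroids exposed to agents for seven days before reading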;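 for viability, T/C: percent of vehicle control luminescence with DMSO treated spheroids as 100%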
Settings: for IC50: curve of first compound; for viability, T/C: stronger effect = lower value
Procedure, shortened: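 Targeted small molecules plus PI3K inhibitors, half-log dose series from Cmax (default top 10 microM), were applied to heterotypic spheroids of cancer cells with HUVEC and MSCs. Viability indicated growth inhibition.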

[1] = second compound 0.0316 µM, first compound 0.0316 µM
[2] = second compound 0.0316 µM, first compound 0.1 µM
[3] = second compound 0.0316 µM, first compound 0.316 µM
[4] = second compound 0.0316 µM, first compound 1 µM
[5] = second compound 0.0316 µM, first compound 3.16 µM
[6] = second compound 0.0316 µM, first compound 10 µM
[7] = second compound 0.1 µM, first compound 0.0316 µM
[8] = second compound 0.1 µM, first compound 0.1 µM
[9] = second compound 0.1 µM, first compound 0.316 µM
[10] = second compound 0.1 µM, first compound 1 µM
[11] = second compound 0.1 µM, first compound 3.16 µM
[12] = second compound 0.1 µM, first compound 10 µM
[13] = second compound 0.316 µM, first compound 0.0316 µM
[14] = second compound 0.316 µM, first compound 0.1 µM
[15] = second compound 0.316 µM, first compound 0.316 µM
[16] = second compound 0.316 µM, first compound 1 µM
[17] = second compound 0.316 µM, first compound 3.16 µM
[18] = second compound 0.316 µM, first compound 10 µM
[19] = second compound 1 µM, first compound 0.0316 µM
[20] = second compound 1 µM, first compound 0.1 µM
[21] = second compound 1 µM, first compound 0.316 µM
[22] = second compound 1 µM, first compound 1 µM
[23] = second compound 1 µM, first compound 3.16 µM
[24] = second compound 1 µM, first compound 10 µM
[25] = second compound 3.16 µM, first compound 0.0316 µM
[26] = second compound 3.16 µM, first compound 0.1 µM
[27] = second compound 3.16 µM, first compound 0.316 µM
[28] = second compound 3.16 µM, first compound 1 µM
[29] = second compound 3.16 µM, first compound 3.16 µM
[30] = second compound 3.16 µM, first compound 10 µM
[31] = second compound 10 µM, first compound 0.0316 µM
[32] = second compound 10 µM, first compound 0.1 µM
[33] = second compound 10 µM, first compound 0.316 µM
[34] = second compound 10 µM, first compound 1 µM
[35] = second compound 10 µM, first compound 3.16 µM
[36] = second compound 10 µM, first compound 10 µM

In the case of CC(C)NCC(C(=O)N1CCN(c2ncnc3c2C(C)CC3O)CC1)c1ccc(Cl)cc1 (stereo unspecified) + CC(Nc1ncnc2nc[nH]c12)c1cc2cccc(Cl)c2c(=O)n1-c1ccccc1, the IC50 (second compound 0.0316 µM) is reported as 8610 nM, the IC50 (second compound 0.1 µM) is reported as 8770 nM and the IC50 (second compound 0.316 µM) is reported as 6480 nM. It also gave an IC50 (second compound 1 µM) of 5570 nM, an IC50 (second compound 3.16 µM) of 1870 nM and an IC50 (second compound 10 µM) of 96.5 nM. It also gave a viability, T/C [1] of 103%, a viability, T/C [2] of 98% and a viability, T/C [3] of 97.1%. For the same compound, the viability, T/C [4] was 91%, the viability, T/C [5] was 64.3% and the viability, T/C [6] was 47.9%. The viability, T/C [7] was 106%, the viability, T/C [8] was 88.5% and the viability, T/C [9] was 91.8%. It also gave a viability, T/C [10] of 82.2%, a viability, T/C [11] of 66.3% and a viability, T/C [12] of 46.8%. For the same compound, the viability, T/C [13] was 86%, the viability, T/C [14] was 102% and the viability, T/C [15] was 86.8%. The viability, T/C [16] was 77.9%, the viability, T/C [17] was 62.1% and the viability, T/C [18] was 43%. The viability, T/C [19] was 92.1%, the viability, T/C [20] was 82.3% and the viability, T/C [21] was 76.5%. It also gave a viability, T/C [22] of 65.9%, a viability, T/C [23] of 55.2% and a viability, T/C [24] of 44.3%. The viability, T/C [25] was 63.5%, the viability, T/C [26] was 62.1% and the viability, T/C [27] was 63%. It also gave a viability, T/C [28] of 51.6%, a viability, T/C [29] of 45.3% and a viability, T/C [30] of 39.1%. The viability, T/C [31] was 52.5%, the viability, T/C [32] was 48.6% and the viability, T/C [33] was 49.3%. For the same compound, the viability, T/C [34] was 40.7%, the viability, T/C [35] was 37.9% and the viability, T/C [36] was 31.8%.
In the case of C[C@@H](NC(=O)c1ncnc(N)c1Cl)c1ncc(C(=O)Nc2cc(C(F)(F)F)c(Cl)cn2)s1 + CC(Nc1ncnc2nc[nH]c12)c1cc2cccc(Cl)c2c(=O)n1-c1ccccc1, the IC50 (second compound 0.0316 µM) is reported as greater than 10000 nM, the IC50 (second compound 0.1 µM) is reported as greater than 10000 nM and the IC50 (second compound 0.316 µM) is reported as greater than 10000 nM. The IC50 (second compound 1 µM) was 8160 nM, the IC50 (second compound 3.16 µM) was 1380 nM and the IC50 (second compound 10 µM) was 334 nM. It also gave a viability, T/C [1] of 142%, a viability, T/C [2] of 120% and a viability, T/C [3] of 110%. The viability, T/C [4] was 85.6%, the viability, T/C [5] was 75.6% and the viability, T/C [6] was 62.6%. It also gave a viability, T/C [7] of 140%, a viability, T/C [8] of 119% and a viability, T/C [9] of 106%. The viability, T/C [10] was 89.9%, the viability, T/C [11] was 72.7% and the viability, T/C [12] was 62.4%. It also gave a viability, T/C [13] of 125%, a viability, T/C [14] of 124% and a viability, T/C [15] of 106%. It also gave a viability, T/C [16] of 80.5%, a viability, T/C [17] of 68% and a viability, T/C [18] of 55.9%. It also gave a viability, T/C [19] of 114%, a viability, T/C [20] of 101% and a viability, T/C [21] of 79.1%. The viability, T/C [22] was 73.8%, the viability, T/C [23] was 60.1% and the viability, T/C [24] was 46.8%. The viability, T/C [25] was 95.5%, the viability, T/C [26] was 79.5% and the viability, T/C [27] was 60.6%. It also gave a viability, T/C [28] of 51.7%, a viability, T/C [29] of 47.7% and a viability, T/C [30] of 37.3%. It also gave a viability, T/C [31] of 72%, a viability, T/C [32] of 58.6% and a viability, T/C [33] of 47.8%. It also gave a viability, T/C [34] of 45.5%, a viability, T/C [35] of 33.6% and a viability, T/C [36] of 26.1%.
Cn1ncnc1[C@H]1c2n[nH]c(=O)c3cc(F)cc(c23)N[C@@H]1c1ccc(F)cc1 + CC(Nc1ncnc2nc[nH]c12)c1cc2cccc(Cl)c2c(=O)n1-c1ccccc1 showed an IC50 (second compound 0.0316 µM) greater than 100 nM, an IC50 (second compound 0.1 µM) greater than 100 nM and an IC50 (second compound 0.316 µM) greater than 100 nM. The IC50 (second compound 1 µM) was greater than 100 nM, the IC50 (second compound 3.16 µM) was greater than 100 nM and the IC50 (second compound 10 µM) was less than 0.316 nM. It also gave a viability, T/C (second compound 0.0316 µM, first compound 0.000316 µM) of 106%, a viability, T/C (second compound 0.0316 µM, first compound 0.001 µM) of 108% and a viability, T/C (second compound 0.0316 µM, first compound 0.00316 µM) of 97.6%. The viability, T/C (second compound 0.0316 µM, first compound 0.01 µM) was 92.5%, the viability, T/C [1] was 98.9% and the viability, T/C [2] was 77.1%. It also gave a viability, T/C (second compound 0.1 µM, first compound 0.000316 µM) of 99.7%, a viability, T/C (second compound 0.1 µM, first compound 0.001 µM) of 99.7% and a viability, T/C (second compound 0.1 µM, first compound 0.00316 µM) of 103%. The viability, T/C (second compound 0.1 µM, first compound 0.01 µM) was 94%, the viability, T/C [7] was 92% and the viability, T/C [8] was 79.2%. For the same compound, the viability, T/C (second compound 0.316 µM, first compound 0.000316 µM) was 94.7%, the viability, T/C (second compound 0.316 µM, first compound 0.001 µM) was 103% and the viability, T/C (second compound 0.316 µM, first compound 0.00316 µM) was 86.8%. For the same compound, the viability, T/C (second compound 0.316 µM, first compound 0.01 µM) was 93.3%, the viability, T/C [13] was 86.9% and the viability, T/C [14] was 76.1%. For the same compound, the viability, T/C (second compound 1 µM, first compound 0.000316 µM) was 87.2%, the viability, T/C (second compound 1 µM, first compound 0.001 µM) was 81.9% and the viability, T/C (second compound 1 µM, first compound 0.00316 µM) was 80.8%. The viability, T/C (second compound 1 µM, first compound 0.01 µM) was 78%, the viability, T/C [19] was 73.4% and the viability, T/C [20] was 65%. The viability, T/C (second compound 3.16 µM, first compound 0.000316 µM) was 63.7%, the viability, T/C (second compound 3.16 µM, first compound 0.001 µM) was 60.9% and the viability, T/C (second compound 3.16 µM, first compound 0.00316 µM) was 54.1%. For the same compound, the viability, T/C (second compound 3.16 µM, first compound 0.01 µM) was 60.6%, the viability, T/C [25] was 49.8% and the viability, T/C [26] was 52.3%. The viability, T/C (second compound 10 µM, first compound 0.000316 µM) was 48.9%, the viability, T/C (second compound 10 µM, first compound 0.001 µM) was 47.6% and the viability, T/C (second compound 10 µM, first compound 0.00316 µM) was 46.8%. It also gave a viability, T/C (second compound 10 µM, first compound 0.01 µM) of 46.4%, a viability, T/C [31] of 46% and a viability, T/C [32] of 38.8%.
